{"source": "patent US5468758A", "about": "“Crystalline forms of endo-2,3-dihydro-N-(8-methyl)-8-azabicyclo[3.2.1]oct-3-yl)-2-oxo-1H-benz imidazole-1-carboxamides” (Boehringer Ingelheim Italia S.p.A., priority 1992, dated 1995)", "format_in_all_cases": "physicochemical", "key": {"[1]": {"experiment": "Moisture sorption/desorption studies (hygrostat, storage at different temperatures and relative humidity)", "design": "water content (Table VI): unit not given here", "settings": "for moisture absorption: different temperatures and relative humidity, in words", "experimental": "The determination of the sorption isotherms was carried out in a hygrostat.\nAt suitable intervals, the sample was weighed by means of a sample balance. The atmosphere in the hygrostat and therefore around the sample of compound 1a (1b) and 2a (2b) was conditioned and kept by a saturated solutions of a suitable salt:\nNa Cl saturated solution 75.3% RH/25° C. 74.8% RH/37° C.\nKNO3 saturated solution 93.7% RH/25° C. 90.0% RH/37° C.\nAt the end of the experiment, after completing the hysteresis, that is the adsorption--desorption cycle of humidity, the compound was assayed for the title and degradation products by TLC and HPLC, the physical state by DSC and water content by TGA."}, "[2]": {"experiment": "Milling studies (FRITSCH Pulverisette 14 Rotor Speed Mill)", "experimental": "The milling process was performed by the FRITSCH Pulverisette 14 Rotor Speed Mill supplied with circular sieve stainless steel with trapezoidal 0.080 mm diameter openings. The samples were passed through the mill twice at 20.000 rpm motor speed. The sample is assayed for title and degradation products by TLC and HPLC, physical state by DSC, water content by TGA, particle size distribution by Mercury Instrusion Porosimetry. The mi 11ed compounds are formulated in capsules and tablets at very low dose level (0.5 mg) by direct mixing and direct compression manufacturing method, respectively."}, "[3]": {"experiment": "Moisture content during tablet manufacturing (mixing and tableting)", "settings": "for Moisture content: % on the weight of compound 1a", "excerpt": "As a consequence, storage of compound 2a may be effected in normal conditions and no particular precautions are needed to avoid exposure to moisture. The titer of compound 2a, when it is stored in normal conditions, is therefore maintained at difference with compound 1a which, in the same conditions, may show different titles according to the water content. The hygroscopicity may also influence the drug title immediately after the manufacturing of tablets. In fact during the process of manufacturing the drug exposed at normal ambient conditions where it can take up moisture."}, "[4]": {"experiment": "Long-term real time stability tests in tablets and capsules", "settings": "tablets and capsules in PVC/PVDC blister with aluminium foil", "excerpt": "(§1) Drug stability in these final compositions may be measured in accelerated stability tests or in long term real time stability tests. In accelerated stability tests, the above pharmaceutical compositions are exposed at high temperatures at different degrees of relative humidity for a period of time. Such tests are considered to be indicative of the stability of the composition at normal conditions. In long term real time stability studies the final compositions are exposed to normal conditions of storage at ambient temperatures at different degrees of relative humidity.\nTablets and capsules are packaged in PVC/PVDC blister with aluminium foil"}, "[5]": {"experiment": "Accelerated stability tests in tablets and capsules", "settings": "tablets and capsules in PVC/PVDC blister with aluminium foil", "excerpt": "as §1\n(*)according to H. Leven Berger Pharm. Act. Helv. 50 (1975) 88-91 it is\nequivalent to 2 years storage at room temperature. Tablets and capsules\nare packaged in PVC/PVDC blister with aluminium foil.\n(*)according to \"Guidelines for stability studies for Human Drugs and\nBiologics\" (1987) (USA/FDA) it is equivalent to 2 years at room\ntemperature. Tablets and capsules are packaged in PVC/PVDC blister with […]"}}, "note": "Where a name gives a salt, the structure may show the parent alone. Read-outs that look alike come from different tables or passages of the source."}
{"smiles": "CCn1c(=O)n(C(=O)N[C@H]2C[C@H]3CC[C@@H](C2)N3C)c2ccccc21", "note": "[Compound 1b, endo-3-ethyl-2,3-dihydro-N-(8-methyl-8-azabicyclo-[3.2.1]oct-3-yl)-2-oxo-1H-benzimidazole-1-carboxamide hydrochloride, reference compound]", "values": [{"measurement": "water content (Table VI)", "setting": "[1]; 37° C., 49.2% RH, 2 h, hydrochloride", "value": 2.18}, {"measurement": "water content (Table VI)", "setting": "[1]; 37° C., 49.2% RH, 4 h, hydrochloride", "value": 2.58}, {"measurement": "water content (Table VI)", "setting": "[1]; 37° C., 49.2% RH, 6 h, hydrochloride", "value": 3.01}, {"measurement": "water content (Table VI)", "setting": "[1]; 37° C., 49.2% RH, 1 d, hydrochloride", "value": 4.07}, {"measurement": "water content (Table VI)", "setting": "[1]; 37° C., 49.2% RH, 4 d, hydrochloride", "value": 4.81}, {"measurement": "water content (Table VI)", "setting": "[1]; 37° C., 49.2% RH, 10 d, hydrochloride", "value": 4.82}, {"measurement": "water content (Table VI)", "setting": "[1]; 37° C., 49.2% RH, 30 d, hydrochloride", "value": 4.81}, {"measurement": "water content (Table VI)", "setting": "[1]; 37° C., 49.2% RH, time 0, hydrochloride", "value": 1.13}, {"measurement": "water content (Table VI)", "setting": "[1]; 37° C., 74.8% RH, 2 h, hydrochloride", "value": 4.99}, {"measurement": "water content (Table VI)", "setting": "[1]; 37° C., 74.8% RH, 4 h, hydrochloride", "value": 4.93}, {"measurement": "water content (Table VI)", "setting": "[1]; 37° C., 74.8% RH, 6 h, hydrochloride", "value": 4.97}, {"measurement": "water content (Table VI)", "setting": "[1]; 37° C., 74.8% RH, 1 d, hydrochloride", "value": 4.90}, {"measurement": "water content (Table VI)", "setting": "[1]; 37° C., 74.8% RH, 4 d, hydrochloride", "value": 4.92}, {"measurement": "water content (Table VI)", "setting": "[1]; 37° C., 74.8% RH, 10 d, hydrochloride", "value": 4.85}, {"measurement": "water content (Table VI)", "setting": "[1]; 37° C., 74.8% RH, 30 d, hydrochloride", "value": 4.81}, {"measurement": "water content (Table VI)", "setting": "[1]; 37° C., 74.8% RH, time 0, hydrochloride", "value": 1.13}, {"measurement": "moisture absorption", "setting": "[1]; hydrochloride", "value": "marked tendency to moisture absorption"}, {"measurement": "humidity content", "setting": "[2]; after milling, hydrochloride", "value": 2.32, "unit": "%"}, {"measurement": "humidity content", "setting": "[2]; before milling", "value": 0.87, "unit": "%"}]}
{"smiles": "CN1C2CCC1CC(NC(=O)n1c(=O)[nH]c3ccccc31)C2", "note": "(stereo not drawn) [Compound 1a, endo-2,3-dihydro-N-(8-methyl-8-azabicyclo[3.2.1]oct-3-yl)-2-oxo-1H-benzimidazole-1-carboxamide, reference compound]", "values": [{"measurement": "Moisture content", "setting": "[3]; Final (b), tableting", "value": 1.02, "unit": "%"}, {"measurement": "Moisture content", "setting": "[3]; Intermediate (a), mixing", "value": 0.66, "unit": "%"}, {"measurement": "Moisture content", "setting": "[3]; Start", "value": 0.62, "unit": "%"}, {"measurement": "water content during manufacturing", "setting": "[3]; mixing (a) and tableting (b) phases, in words", "value": "increases its water content"}, {"measurement": "water content (Table III)", "setting": "[1]; 37° C., 75% RH, 2 h", "value": 0.34, "unit": "%"}, {"measurement": "water content (Table III)", "setting": "[1]; 37° C., 75% RH, 4 h", "value": 0.39, "unit": "%"}, {"measurement": "water content (Table III)", "setting": "[1]; 37° C., 75% RH, 6 h", "value": 0.59, "unit": "%"}, {"measurement": "water content (Table III)", "setting": "[1]; 37° C., 75% RH, 1 d", "value": 1.95, "unit": "%"}, {"measurement": "water content (Table III)", "setting": "[1]; 37° C., 75% RH, 5 d", "value": 5.09, "unit": "%"}, {"measurement": "water content (Table III)", "setting": "[1]; 37° C., 75% RH, 9 d", "value": 5.13, "unit": "%"}, {"measurement": "water content (Table III)", "setting": "[1]; 37° C., 75% RH, 15 d", "value": 5.13, "unit": "%"}, {"measurement": "water content (Table III)", "setting": "[1]; 37° C., 94% RH, 2 h", "value": 1.93, "unit": "%"}, {"measurement": "water content (Table III)", "setting": "[1]; 37° C., 94% RH, 4 h", "value": 3.41, "unit": "%"}, {"measurement": "water content (Table III)", "setting": "[1]; 37° C., 94% RH, 6 h", "value": 4.68, "unit": "%"}, {"measurement": "water content (Table III)", "setting": "[1]; 37° C., 94% RH, 1 d", "value": 5.04, "unit": "%"}, {"measurement": "water content (Table III)", "setting": "[1]; 37° C., 94% RH, 5 d", "value": 5.06, "unit": "%"}, {"measurement": "water content (Table III)", "setting": "[1]; 37° C., 94% RH, 9 d", "value": 5.06, "unit": "%"}, {"measurement": "water content (Table III)", "setting": "[1]; 37° C., 94% RH, 15 d", "value": 5.04, "unit": "%"}, {"measurement": "water content (Table III)", "setting": "[1]; Room Temperature, 75% RH, 2 h", "value": 0.68, "unit": "%"}, {"measurement": "water content (Table III)", "setting": "[1]; Room Temperature, 75% RH, 4 h", "value": 0.74, "unit": "%"}, {"measurement": "water content (Table III)", "setting": "[1]; Room Temperature, 75% RH, 6 h", "value": 0.78, "unit": "%"}, {"measurement": "water content (Table III)", "setting": "[1]; Room Temperature, 75% RH, 1 d", "value": 1.25, "unit": "%"}, {"measurement": "water content (Table III)", "setting": "[1]; Room Temperature, 75% RH, 4 d", "value": 2.54, "unit": "%"}, {"measurement": "water content (Table III)", "setting": "[1]; Room Temperature, 75% RH, 8 d", "value": 3.5, "unit": "%"}, {"measurement": "water content (Table III)", "setting": "[1]; Room Temperature, 75% RH, 20 d", "value": 4.59, "unit": "%"}, {"measurement": "water content (Table III)", "setting": "[1]; Room Temperature, 75% RH, 40 d", "value": 4.95, "unit": "%"}, {"measurement": "water content (Table III)", "setting": "[1]; Room Temperature, 94% RH, 2 h", "value": 1.28, "unit": "%"}, {"measurement": "water content (Table III)", "setting": "[1]; Room Temperature, 94% RH, 4 h", "value": 1.92, "unit": "%"}, {"measurement": "water content (Table III)", "setting": "[1]; Room Temperature, 94% RH, 6 h", "value": 2.41, "unit": "%"}, {"measurement": "water content (Table III)", "setting": "[1]; Room Temperature, 94% RH, 1 d", "value": 5.33, "unit": "%"}, {"measurement": "water content (Table III)", "setting": "[1]; Room Temperature, 94% RH, 4 d", "value": 5.39, "unit": "%"}, {"measurement": "water content (Table III)", "setting": "[1]; Room Temperature, 94% RH, 8 d", "value": 5.39, "unit": "%"}, {"measurement": "water content (Table III)", "setting": "[1]; Room Temperature, 94% RH, 20 d", "value": 5.4, "unit": "%"}, {"measurement": "water content (Table III)", "setting": "[1]; Room Temperature, 94% RH, 40 d", "value": 5.42, "unit": "%"}, {"measurement": "moisture absorption", "setting": "[1]", "value": "marked tendency to moisture absorption"}, {"measurement": "particle size reduction (milling efficiency)", "setting": "[2]; Mercury Porosimetry Analysis, in words", "value": "same rank order"}, {"measurement": "percentage of degradation products after milling", "setting": "[2]; rotor speed of 20,000 rpm", "value": 0.65, "unit": "%"}, {"measurement": "% degradation", "setting": "[4]; 3 months/40° C., 129600 min", "value": 0.6, "unit": "%"}, {"measurement": "% degradation", "setting": "[4]; 6 months/30° C.-70% RH, 259200 min", "value": 0.5, "unit": "%"}, {"measurement": "% degradation", "setting": "[4]; 6 months/40° C., 259200 min", "value": 1.1, "unit": "%"}, {"measurement": "% degradation", "setting": "[5]; 1 month/55° C., 43200 min", "value": 2.0, "unit": "%"}, {"measurement": "degraded at 2160 h", "setting": "[5]; tablets and capsules, 3 months/40° C.-75% RH, read-out: % degradation", "value": 0.8, "unit": "%"}, {"measurement": "degraded at 2160 h", "setting": "[5]; tablets and capsules, 3 months/55° C., read-out: % degradation", "value": 3.2, "unit": "%"}, {"measurement": "degraded at 4320 h", "setting": "[5]; tablets and capsules, 6 months/40° C.-75% RH, read-out: % degradation", "value": 1.7, "unit": "%"}]}
